Experimental data taken from patent publication US20230278972A1, “SUBSTITUTED HALOALKYL SULFONANILIDE HERBICIDES” (FMC Corporation, priority 2020, published 2023).

Columns and labels:
Type in all cases: in vivo
[1] = tested on: corn (Zea mays); test: Test A postemergence, corn; details: Postemergence, 0 to 100 scale (0 no effect, 100 complete control)
Outline: (§1)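 After sowing into a sand-amended loam, pots for the preemergence test were treated by spraying directly onto soil. In parallel, seedlings at the one- to two-leaf stage and 2 to 10 cm tall were treated postemergence with the identical surfactant-containing formulation.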

[2] = tested on: barnyardgrass (Echinochloa crus-galli); test: Test A preemergence, barnyardgrass; details: Preemergence; for Plant response rating, Barnyardgrass: 0 to 100 scale (0 no effect, 100 complete control); for Barnyardgrass plant response rating: 125 g ai/ha, visual injury on 0 to 100 scale (0 no effect, 100 complete control), approximately 10 days
Outline: as §1

[3] = tested on: blackgrass (Alopecurus myosuroides); test: Test A postemergence, blackgrass; details: Postemergence, 0 to 100 scale (0 no effect, 100 complete control)
Outline: as §1

[4] = tested on: pigweed (Amaranthus retroflexus); test: Test A preemergence, pigweed; details: for Plant response rating, Pigweed: 0 to 100 scale (0 no effect, 100 complete control); for Pigweed plant response rating: 125 g ai/ha, visual injury on 0 to 100 scale (0 no effect, 100 complete control), approximately 10 days
Outline: (§2)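 Preemergence: pigweed seeds in loam soil–sand blend received a directed soil spray of test chemicals in a non-phytotoxic solvent with surfactant. Postemergence: barnyardgrass, wheat and galium in pots of the same soil, 2 to 10 cm tall at one- to two-leaf stage, sprayed with the same formulation.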

[5] = tested on: barnyardgrass (Echinochloa crus-galli); test: Test A postemergence, barnyardgrass; details: Postemergence, 0 to 100 scale (0 no effect, 100 complete control)
Outline: as §2

[6] = tested on: ragweed (common ragweed, Ambrosia artemisiifolia); test: Test A preemergence, ragweed; details: Preemergence; for Plant response rating, Ragweed: 0 to 100 scale (0 no effect, 100 complete control); for Ragweed plant response rating: 125 g ai/ha, visual injury on 0 to 100 scale (0 no effect, 100 complete control), approximately 10 days
Outline: as §1

[7] = tested on: Ryegrass, Italian (Italian ryegrass, Lolium multiflorum); test: Test A postemergence, Ryegrass, Italian; details: Postemergence, 0 to 100 scale (0 no effect, 100 complete control)
Outline: as §1

[8] = tested on: Foxtail, Giant (giant foxtail, Setaria faberi); test: Test A preemergence, Foxtail, Giant; details: Preemergence; for Plant response rating, Foxtail, Giant: 0 to 100 scale (0 no effect, 100 complete control); for Foxtail, Giant plant response rating: 125 g ai/ha, visual injury on 0 to 100 scale (0 no effect, 100 complete control), approximately 10 days
Outline: as §1

[9] = tested on: galium (catchweed bedstraw, Galium aparine); test: Test A postemergence, galium; details: Postemergence, 0 to 100 scale (0 no effect, 100 complete control)
Outline: as §2

[10] = tested on: kochia (Bassia scoparia); test: Test A postemergence, kochia; details: Postemergence, 0 to 100 scale (0 no effect, 100 complete control)
Outline: as §1

[11] = tested on: Foxtail, Giant (giant foxtail, Setaria faberi); test: Test A postemergence, Foxtail, Giant; details: Postemergence, 0 to 100 scale (0 no effect, 100 complete control)
Outline: as §1

[12] = tested on: kochia (Bassia scoparia); test: Test A preemergence, kochia; details: Preemergence; for Plant response rating, Kochia: 0 to 100 scale (0 no effect, 100 complete control); for Kochia plant response rating: 125 g ai/ha, visual injury on 0 to 100 scale (0 no effect, 100 complete control), approximately 10 days
Outline: as §1

[13] = tested on: ragweed (common ragweed, Ambrosia artemisiifolia); test: Test A postemergence, ragweed; details: Postemergence, 0 to 100 scale (0 no effect, 100 complete control)
Outline: as §1

[14] = tested on: Ryegrass, Italian (Italian ryegrass, Lolium multiflorum); test: Test A preemergence, Ryegrass, Italian; details: Preemergence; for Plant response rating, Ryegrass, Italian: 0 to 100 scale (0 no effect, 100 complete control); for Ryegrass, Italian plant response rating: 125 g ai/ha, visual injury on 0 to 100 scale (0 no effect, 100 complete control), approximately 10 days
Outline: as §1

[15] = tested on: wheat (Triticum aestivum); test: Test A postemergence, wheat; details: Postemergence, 0 to 100 scale (0 no effect, 100 complete control)
Outline: as §2

[16] = tested on: pigweed (Amaranthus retroflexus); test: Test A postemergence, pigweed; details: Postemergence, 0 to 100 scale (0 no effect, 100 complete control)
Outline: as §1

[17] = 1000 g ai/ha, visual injury, approx. 10 days
[18] = 125 g ai/ha, visual injury approx. 10 days
[19] = 500 g ai/ha, visual injury, approx. 10 days

`Cc1cc(C)c(C(=O)N2CCN(C)CC2)cc1NS(=O)(=O)C(F)(F)F` [Compound 10] was tested, and the “Plant response rating, Corn” value [1, 17] was 10, the “Plant response rating, Barnyardgrass” value ([2]; 1000 g ai/ha) was 40 and the “Plant response rating, Blackgrass” value [3, 17] was 0. The “Plant response rating, Pigweed” value ([4]; 1000 g ai/ha) was 100, the “Plant response rating, Barnyardgrass” value [5, 17] was 10 and the “Plant response rating, Ragweed” value ([6]; 1000 g ai/ha) was 90. For the same molecule, the “Plant response rating, Ryegrass, Italian” value [7, 17] was 60, the “Plant response rating, Foxtail, Giant” value ([8]; 1000 g ai/ha) was 80 and the “Plant response rating, Galium” value [9, 17] was 80. The “Plant response rating, Kochia” value [10, 17] was 40, the “Plant response rating, Foxtail, Giant” value [11, 17] was 20 and the “Plant response rating, Kochia” value ([12]; 1000 g ai/ha) was 60. For the same molecule, the “Plant response rating, Ragweed” value [13, 17] was 80, the “Plant response rating, Ryegrass, Italian” value ([14]; 1000 g ai/ha) was 90 and the “Plant response rating, Wheat” value [15, 17] was 0. For the same molecule, the “Plant response rating, Pigweed” value [16, 17] was 80.
In the case of `Cc1cc(C)c(C(=O)N2CCC(C#N)CC2)cc1NS(=O)(=O)C(F)(F)F` [Compound 11], the “Plant response rating, Corn” value [1, 17] is reported as 60, the “Plant response rating, Barnyardgrass” value ([2]; 1000 g ai/ha) is reported as 100 and the “Plant response rating, Blackgrass” value [3, 17] is reported as 50. The “Plant response rating, Pigweed” value ([4]; 1000 g ai/ha) was 100, the “Plant response rating, Barnyardgrass” value [5, 17] was 90 and the “Plant response rating, Ragweed” value ([6]; 1000 g ai/ha) was 80. For the same molecule, the “Plant response rating, Ryegrass, Italian” value [7, 17] was 70, the “Plant response rating, Foxtail, Giant” value ([8]; 1000 g ai/ha) was 100 and the “Plant response rating, Galium” value [9, 17] was 90. The “Plant response rating, Kochia” value [10, 17] was 60, the “Plant response rating, Foxtail, Giant” value [11, 17] was 90 and the “Plant response rating, Kochia” value ([12]; 1000 g ai/ha) was 90. The “Plant response rating, Ragweed” value [13, 17] was 80, the “Plant response rating, Ryegrass, Italian” value ([14]; 1000 g ai/ha) was 0 and the “Plant response rating, Wheat” value [15, 17] was 80. For the same molecule, the “Plant response rating, Pigweed” value [16, 17] was 100.
In the case of `Cc1cc(Cl)c(NS(=O)(=O)C(F)(F)F)cc1C(=O)N1CCC(C#N)CC1` [Compound 17], the “Plant response rating, Corn” value [1, 18] is reported as 10, the “Plant response rating, Corn” value [1, 19] is reported as 20 and the “Barnyardgrass plant response rating” value [2] is reported as 100. The “Plant response rating, Barnyardgrass” value ([2]; 500 g ai/ha) was 100, the “Plant response rating, Blackgrass” value [3, 18] was 0 and the “Plant response rating, Blackgrass” value [3, 19] was 30. The “Pigweed plant response rating” value [4] was 90, the “Plant response rating, Pigweed” value ([4]; 500 g ai/ha) was 100 and the “Plant response rating, Barnyardgrass” value [5, 18] was 30. The “Plant response rating, Barnyardgrass” value [5, 19] was 90, the “Ragweed plant response rating” value [6] was 80 and the “Plant response rating, Ragweed” value ([6]; 500 g ai/ha) was 80. The “Plant response rating, Ryegrass, Italian” value [7, 18] was 0, the “Plant response rating, Ryegrass, Italian” value [7, 19] was 70 and the “Foxtail, Giant plant response rating” value [8] was 100. The “Plant response rating, Foxtail, Giant” value ([8]; 500 g ai/ha) was 100, the “Plant response rating, Galium” value [9, 18] was 80 and the “Plant response rating, Galium” value [9, 19] was 90. For the same molecule, the “Plant response rating, Kochia” value [10, 18] was 60, the “Plant response rating, Kochia” value [10, 19] was 70 and the “Plant response rating, Foxtail, Giant” value [11, 18] was 90. For the same molecule, the “Plant response rating, Foxtail, Giant” value [11, 19] was 90, the “Kochia plant response rating” value [12] was 70 and the “Plant response rating, Kochia” value ([12]; 500 g ai/ha) was 90. For the same molecule, the “Plant response rating, Ragweed” value [13, 18] was 80, the “Plant response rating, Ragweed” value [13, 19] was 90 and the “Ryegrass, Italian plant response rating” value [14] was 80. The “Plant response rating, Ryegrass, Italian” value ([14]; 500 g ai/ha) was 100, the “Plant response rating, Wheat” value [15, 18] was 70 and the “Plant response rating, Wheat” value [15, 19] was 60. For the same molecule, the “Plant response rating, Pigweed” value [16, 18] was 60 and the “Plant response rating, Pigweed” value [16, 19] was 70.
With `COC1CCN(C(=O)c2cc(NS(=O)(=O)C(F)(F)F)c(C)cc2C)CC1` [Compound 19] the “Plant response rating, Corn” value [1, 17] was 50, the “Plant response rating, Barnyardgrass” value ([2]; 1000 g ai/ha) was 100 and the “Plant response rating, Blackgrass” value [3, 17] was 60. For the same molecule, the “Plant response rating, Pigweed” value ([4]; 1000 g ai/ha) was 100, the “Plant response rating, Barnyardgrass” value [5, 17] was 80 and the “Plant response rating, Ragweed” value ([6]; 1000 g ai/ha) was 90. For the same molecule, the “Plant response rating, Ryegrass, Italian” value [7, 17] was 50, the “Plant response rating, Foxtail, Giant” value ([8]; 1000 g ai/ha) was 100 and the “Plant response rating, Galium” value [9, 17] was 40. The “Plant response rating, Kochia” value [10, 17] was 70, the “Plant response rating, Foxtail, Giant” value [11, 17] was 90 and the “Plant response rating, Kochia” value ([12]; 1000 g ai/ha) was 90. The “Plant response rating, Ragweed” value [13, 17] was 80, the “Plant response rating, Ryegrass, Italian” value ([14]; 1000 g ai/ha) was 90 and the “Plant response rating, Wheat” value [15, 17] was 50. The “Plant response rating, Pigweed” value [16, 17] was 80.
In the case of `Cc1cc(Cl)c(NS(=O)(=O)C(F)(F)F)cc1C(=O)N1CC(C)OC(C)C1` (stereo not shown) [Compound 20], the “Plant response rating, Corn” value [1, 18] is reported as 10, the “Plant response rating, Corn” value [1, 19] is reported as 70 and the “Barnyardgrass plant response rating” value [2] is reported as 100. The “Plant response rating, Barnyardgrass” value ([2]; 500 g ai/ha) was 100, the “Plant response rating, Blackgrass” value [3, 18] was 30 and the “Plant response rating, Blackgrass” value [3, 19] was 30. For the same molecule, the “Pigweed plant response rating” value [4] was 20, the “Plant response rating, Pigweed” value ([4]; 500 g ai/ha) was 80 and the “Plant response rating, Barnyardgrass” value [5, 18] was 60. For the same molecule, the “Plant response rating, Barnyardgrass” value [5, 19] was 80, the “Ragweed plant response rating” value [6] was 90 and the “Plant response rating, Ragweed” value ([6]; 500 g ai/ha) was 100. For the same molecule, the “Plant response rating, Ryegrass, Italian” value [7, 18] was 70, the “Plant response rating, Ryegrass, Italian” value [7, 19] was 70 and the “Foxtail, Giant plant response rating” value [8] was 80. The “Plant response rating, Foxtail, Giant” value ([8]; 500 g ai/ha) was 100, the “Plant response rating, Galium” value [9, 18] was 90 and the “Plant response rating, Galium” value [9, 19] was 90. For the same molecule, the “Plant response rating, Kochia” value [10, 18] was 10, the “Plant response rating, Kochia” value [10, 19] was 30 and the “Plant response rating, Foxtail, Giant” value [11, 18] was 60. For the same molecule, the “Plant response rating, Foxtail, Giant” value [11, 19] was 90, the “Kochia plant response rating” value [12] was 40 and the “Plant response rating, Kochia” value ([12]; 500 g ai/ha) was 90. For the same molecule, the “Plant response rating, Ragweed” value [13, 18] was 80, the “Plant response rating, Ragweed” value [13, 19] was 80 and the “Ryegrass, Italian plant response rating” value [14] was 50. The “Plant response rating, Ryegrass, Italian” value ([14]; 500 g ai/ha) was 100, the “Plant response rating, Wheat” value [15, 18] was 60 and the “Plant response rating, Wheat” value [15, 19] was 70. For the same molecule, the “Plant response rating, Pigweed” value [16, 18] was 30 and the “Plant response rating, Pigweed” value [16, 19] was 80.
